Legend:
[1] = tested on: BHQ1-pre-let7a and EGFP-Lin28A bound complexes; test: FRET assay, displacement of BHQ1-pre-let7a from EGFP-Lin28A; type: binding; conditions: at 1 μM; 19B-let7a at 100 nM
Description: This method was adapted from Roos et al (2016). HEK 293-T cells (ATCC) were cultured as monolayers in DMEM GlutaMAX™-1 (Cat #31966-021, Gibco®, Life Technologies) supplemented with 10% of FBS (fetal bovine serum). Stable EGFP-Lin28A HEK 293-T cells were cultured as monolayers in DMEM supplemented with 10% of FBS (fetal bovine serum) and 0.5 mg/ml Geneticin G418 (10131-035, Life Technologies). Transfections were performed according to the manufacturer's protocol with […] (12252-011, Invitrogen, Life Technologies) for siRNAs and JetPEI (101-10, Polyplus transfections) was used for plasmid DNA. […]
160,000 HEK 293 T cells were seeded per well in 6 well plates and transfected with 320 ng pEGFP-C2-Lin28A plasmid according to the experimental setup with the reagents described above and cells were allowed to recover for 48h. […] The EGFP-lin28A| expressing cells were sorted using Fluorescence Activated Cell Sorting (FACS). Finally, larger colonies of individual clones were analyzed for expression levels of EGFP-Lin28A by performing the FRET assay. […]
FRET system (EGFP-Lin28A and 19B-let7a) treated with DMSO was used as positive control. […] The FRET measurements were obtained from the optimized fluorescence parameter. […] The average signal intensity and background fluorescence were corrected with compound self-fluorescence with and without binding buffer.

YP-MEL NCM tumor = YP-MEL NCM tumor xenograft in SCID mice; type: in vivo; conditions: female SCID mice, 4 mg/kg I.P, every 2 days
Description: FIG. 13A&B: Female SCID YP-MEL NCM tumor bearing mice treated with 4 mg/kg Compound of formula (I) (P1 version) intraperitoneally (I.P). […] (B) Tumor areas were measured with a Vernier caliper (prior to each treatment cycle). Animals were euthanized when the control (0.1% DMSO:PBS) treated mice reached the defined endpoint of 225 mm^2. Data representative of at least 5 independent experiments.
All animal procedures were carried out in accordance with the guidelines of the Canadian Council on Animal Care and the NIH guidelines on the care and use of laboratory animals. All protocols were reviewed and approved by the Animal Care Committee of the University of Calgary (Protocol approval number: AC21-0147). Six- to eight-week-old female or male CB17 severe combined immunodeficiency (SCID) mice (Charles River Laboratories, Saint-Constant, QC, Canada) were subcutaneously injected in the right flank with 3×10^6 YP-MEL or NT-2 cells suspended in 0.1 mL sterile PBS. After tumor injection, animals with detectable tumor growth of at least 50 mm^2 were randomized into groups. […] Animals and respective cages were monitored for food and bedding supplies daily; doses were injected every 2 days and tumor areas were measured with a Vernier caliper (prior to each treatment cycle). […]

CC[C@H](C)[C@H](NC(=O)[C@H](Cc1ncc[nH]1)NC(=O)c1cccc(C(N)=O)c1)C(=O)Nc1ccc(O)c(-c2nc3ccccc3s2)c1 [Compound P1]
reduction in FRET [1]: 70%
growth of NCM tumors (YP-MEL NCM tumor): significantly reduced the growth

Source: US20230391824A1, “RATIONALE, DESIGN, SYNTHESIS AND VALIDATION OF A SMALL MOLECULE ANTICANCER AGENT” (priority 2021, published 2023)
